Data on six molecules can be found in PMC4592236, “Pathogen- and Host-Directed Antileishmanial Effects Mediated by Polyhexanide (PHMB)” (PLoS Neglected Tropical Diseases, 2015).

Structures can show the parent of a compound that is named as a salt. Where two headings read alike, the source gives them in different places.

For data set [1], the system named is L. major promastigotes. Put plainly: AlamarBlue assay against L. major promastigotes. The data set is classed as cell-based, Leishmania major. Conditions: for IC50 (μM) promastigotes: Table 2, without dynasore. As for the experimental part: Cytotoxicities of the different compounds or formulations against mammalian cell (BMDM or 293T epithelial cells) and L. major promastigotes were determined as previously described. Briefly, 4 × 10^4 mammalian cells or 10 × 10^6 virulent L. major promastigotes (MHOM/IL/81/FE/BNI strain) in the log phase of growth were added to each well of 96-well plates and cultured with five increasing concentrations of each compound at 37°C or 27°C for 24 h, respectively. Standard antileishmanial drugs including amphotericin B (A2942), pentamidine isothionate (P0547) and paromomycin sulfate (P9297) from Sigma-Aldrich (Deisenhofen, Germany) and miltefosine (1-hexadecylphosphorylcholine) (Cayman Chemical Company, Ann Arbor, MI, USA) were used as positive controls. The AlamarBlue dye (Trinova Biochem GmbH, Giessen, Germany) was added to each well at 10% concentration and incubated for a further 48 h. The optical density (OD) was then measured by using Multiskan Ascent ELISA reader at a wavelength 550 nm and 630 nm. The OD value or % dye reduction is proportional to viable cell/parasite number and was used for IC50 calculation based on the intercept theorem.
(In general: The colour change of resazurin is a common sign of viable cells or microbes.)

Data set [2] relates to intracellular L. major amastigotes. The data set can be described thus: microbe, parasite or virus in culture. The data set is classed as cell-based, Leishmania major. As to conditions: for IC50: intracellular amastigotes in BMDM, luciferase; for IC50 (μM) amastigotes: Table 2, without dynasore, two independent experiments. How it is done:
The assay is based on bioluminescence measurement of firefly luciferase, which catalyzes the formation of light from ATP and luciferin. The virulent luciferase-transgenic (Luc-tg) L. major strain containing a firefly luciferase reporter gene was maintained by continuous passage in female BALB/c mice and was grown in 96-well blood agar cultures at 27°C, 5% CO2, and 95% humidity. A luciferase-transgenic L. major strain was used to infect BMDM according to our recently established protocol. Briefly, BMDM numbers were adjusted to 2 × 10^5, cultured in 96-well plates and incubated for 4 h to allow adherence to the surface. The promastigote number was adjusted to 3 × 10^6 parasites per ml to achieve an infection rate of 1:15. Then, infection was made by discarding the supernatant of the cultured cells and replacing it with an equal volume of complete RPMI medium containing the promastigotes' suspension. After incubating the infected BMDM (37°C, 5% CO2) for 24 h to allow full differentiation of the promastigotes into amastigotes, the medium containing the extracellular parasites was removed and the wells were washed three times with the same RPMI medium. Five serial dilutions of each substance (1:5) in the same fresh RPMI medium were added to the infected BMDM in duplicate with the appropriate controls. After further 24 h of incubation at 37°C and 5% CO2, the infected BMDM were lysed with a luciferin-containing buffer (Britelite, PerkinElmer, Germany) and luminescence was measured with a luminescence plate reader, Victor X Light 2030 luminometer (PerkinElmer). The IC50 values of the compounds against intracellular amastigotes were calculated based on the intercept theorem, as previously described.

The subject of data set [3] is BMDM. The data set can be described thus: AlamarBlue cytotoxicity assay, BMDM. Conditions: average of 3–6 independent experiments, read-out: IC50 BMDMs. It is filed as cell-based, BALB/c mice.
Data set [4] has as its system BMDM. Put plainly: Cytokine production by BMDM (ELISA). As to conditions: BMDM supernatants, 48 h. The data set is classed as cell-based, BALB/c mice. As for the experimental part:
BMDM were generated from female BALB/c mice as described above in cell culture. 1 × 10^6 BMDM were seeded in a final volume of 0.5 ml in 24-well plates, infected with L. major promastigotes at 15:1 parasite to BMDM ratio, washed and incubated at 37°C for 30 min in complete RPMI medium containing CpG ODN (15 μg/ml). PHMB, CpG ODN or PHMB/CpG ODN polyplexes were added to the pre-activated or control cells and further incubated for 48 h. The supernatants were collected and IL-6, IL-10, IL-4 or TNF-α (Biosciences, Wiesbaden, Germany) concentrations were measured by sandwich ELISA while IL-12p70 was measured by using the IL-12p70 ELISA Ready-SET-Go kit from eBioscience according to the suppliers' instructions.
Background: In an ELISA, binding on a coated surface is turned into a signal by an enzyme label.

In data set [5] the test system is BMDM. Put plainly: Cellular uptake by BMDM (flow cytometry). The data set is classed as cell-based, BALB/c mice. As to conditions: pre-incubation with inhibitor 30 min, then 4 h. How it is done:
PI and YO-PRO-1 dyes (Life Technologies, Darmstadt, Germany) uptake by the promastigotes was measured by MACS Quant Analyzer (Miltenyi Biotec, Bergisch Gladbach, Germany), and used to indicate membrane integrity. […] L. major promastigotes were treated with 2 μM PHMB for indicated time points and then washed at 3,000 × g for 10 min. The samples were stained by incubating with PI or YO-PRO-1 dyes for 15 min in the dark at RT according to manufacturer’s instructions. The samples were then washed and a total of 100,000 events were immediately acquired by flow cytometry. Similarly, adherent BMDM cells were allowed to take-up fluorescent PHMB (PHMB-FITC conjugate) in the presence or absence of five different pharmacological inhibitors (cytochalasin D (C8273, used at 5 μg/ml), wortmannin (W1628, used at 12.85 μg/ml), chlorpromazine hydrochloride (C8138, used at 10 μg/ml), ikarugamycin (SML0188, used at 1 μM) and dynasore (D7693, used at 25.8 μg/ml), Sigma-Aldrich, Deisenhofen, Germany). PHMB (Polyhexamethylene biguanide; CAS# 27083-27-8; alternative chemical names: polyhexanide, polyamino propylbiguanide, Mw = 2780 g/mol) was provided by the laboratory of Dr. Liam Good and by Tecrea Ltd, London UK (www.tecrea.co.uk), at stock concentrations of 1 mg/ml and 200 mg/ml. […] The data were analyzed using FlowJo software (Tree Star Inc., CA, USA).
In general terms: A flow cytometer gives signals particle by particle.

Data set [6] has as its system L. major promastigotes. Put plainly: PHMB-FITC uptake into promastigotes (flow cytometry). It is filed as cell-based, Leishmania major. As to conditions: PHMB-FITC 0.35 μM.
[7] abbreviates: Leishmania major, AlamarBlue, average of 3–6 independent experiments.
Setting [8] is: AlamarBlue, average of 3–6 independent experiments.
[9] abbreviates: concentration of PHMB within polyplexes.
[10] abbreviates: concentration of PHMB within polyplexes, listed as Dynasore (80 μM).
Setting [11] is: with dynasore (80 μM), concentration of PHMB within polyplexes.

For orientation: IC50 means the concentration needed to halve the response being measured. In the case of `N=C(N)c1ccc(OCCCCCOc2ccc(C(=N)N)cc2)cc1` [Pentamidine, pentamidine isothionate], the IC50 with L. major promastigotes [1] (setting [7]) turned out to be 16.2 ± 3.1 µM; in data set [2] (Leishmania major) it was 6.38 ± 2.4 µM; in the data set on BMDM [3] (Mus musculus, BMDM) it was 128 ± 24 µM.
In the case of “CpG ODN: unmethylated cytosine-phosphate-guanine oligodeoxynucleotide 1668, sequence TCCATGACGTTCCTGATGCT (DNA, backbone not given here)”, the IC50 (in the data set with L. major promastigotes [1] (setting [8]); in data set [2]; with BMDM [3]) was over 150 µM in each case. The IC50 promastigotes entry in the data set on L. major promastigotes [1] (setting [8]) is “did not show activity”. Besides, in the data set on BMDM [4], the “cytokine production (IL-6, IL-10, IL-12)” value is reported as “production of all cytokines tested increased with increasing doses”.
For `CCCCCCCCCCCCCCCCOP(=O)([O-])OCC[N+](C)(C)C` [Miltefosine, 1-hexadecylphosphorylcholine], the IC50 in the data set with L. major promastigotes [1] (setting [7]) is 28.3 ± 5.2 µM; in data set [2] (Leishmania major), 54 ± 8.1 µM; in the data set on BMDM [3] (Mus musculus, BMDM) it was 75.6 ± 10.9 µM.
Regarding `O=C(N/N=C/c1ccc(O)c(O)c1)c1cc2ccccc2cc1O` [Dynasore, dynasore], the “IC50 (μM) promastigotes” value in the data set on L. major promastigotes [1] (setting [9]) is recorded as “did not display cytotoxicity”; in the data set on L. major promastigotes [1] (setting [10]), “No activity”. Also, the “IC50 promastigotes + dynasore (μM)” value in the data set with L. major promastigotes [1] (setting [11]) is on record as “No activity”. Further, the entries for the “IC50 (μM) amastigotes” value in data set [2] (setting [9]) and in data set [2] (setting [10]) were “did not display cytotoxicity” and “No activity”, respectively. Also, in data set [2] (setting [11]), the “IC50 amastigotes + dynasore (μM)” value is listed as “No activity”. The “inhibition of PHMB-FITC uptake by BMDM” value with BMDM [5] is listed as 80%. The “inhibition of PHMB-FITC uptake into promastigotes” value with L. major promastigotes [6] is listed as “more than 98%”.
On to `C[C@@H]1[C@H](O)[C@@H](C)/C=C/C=C/C=C/C=C/C=C/C=C/C=C/[C@H](O[C@@H]2O[C@H](C)[C@@H](O)[C@H](N)[C@@H]2O)C[C@@H]2O[C@](O)(C[C@@H](O)C[C@@H](O)[C@H](O)CC[C@@H](O)C[C@@H](O)CC(=O)O[C@H]1C)C[C@H](O)[C@H]2C(=O)O` [Amphotericin B, amphotericin B], for which the IC50 is 0.42 ± 0.5 µM with L. major promastigotes [1] (setting [7]); 0.099 ± 0.05 µM in data set [2] (Leishmania major); over 21 µM in the data set on BMDM [3] (Mus musculus, BMDM).
As to `NC[C@@H]1O[C@H](O[C@H]2[C@@H](O)[C@H](O[C@@H]3[C@@H](O)[C@H](N)C[C@H](N)[C@H]3O[C@H]3O[C@H](CO)[C@@H](O)[C@H](O)[C@H]3N)O[C@@H]2CO)[C@H](N)[C@@H](O)[C@@H]1O` [Paromomycin, paromomycin sulfate], the IC50 with L. major promastigotes [1] (setting [7]) is over 500 µM; in data set [2] (Leishmania major), 1500 ± 112 µM; in the data set with BMDM [3] (Mus musculus, BMDM), over 900 µM.
